Assay [1] has as its system serum cholesterol. The experiment in a line: Serum cholesterol of male CF1 mice (Liebermann-Burchard reaction). As to conditions: Mus musculus, ip. It counts as in vivo. Here is the method:
(§1) For hypolipidemic activity, the compounds were tested at 20 mg/kg/day administered I.P. to male CF1 mice (~30 g). On days 9 and 16 blood was collected by tail-vein bleeding. Serum cholesterol was determined by the Liebermann-Burchard reaction. Serum triglyceride levels were determined using the Hycel commercial kits on a separate group of mice, which were bled on day 14.

Assay [2] deals with serum triglyceride. The experiment in a line: Serum triglyceride levels of male mice (Hycel commercial kits). It counts as in vivo, male CF1 mice. As to conditions: Mus musculus, ip, 336 h. Here is the method:
as §1

Assay [3] deals with T1, Acetyl-CoA Synthetase (Mus musculus, UniProt Q9QXG4).
T1 construct: gm wet tissue/30 min; from tissue
T1 sequence (Q9QXG4 whole entry): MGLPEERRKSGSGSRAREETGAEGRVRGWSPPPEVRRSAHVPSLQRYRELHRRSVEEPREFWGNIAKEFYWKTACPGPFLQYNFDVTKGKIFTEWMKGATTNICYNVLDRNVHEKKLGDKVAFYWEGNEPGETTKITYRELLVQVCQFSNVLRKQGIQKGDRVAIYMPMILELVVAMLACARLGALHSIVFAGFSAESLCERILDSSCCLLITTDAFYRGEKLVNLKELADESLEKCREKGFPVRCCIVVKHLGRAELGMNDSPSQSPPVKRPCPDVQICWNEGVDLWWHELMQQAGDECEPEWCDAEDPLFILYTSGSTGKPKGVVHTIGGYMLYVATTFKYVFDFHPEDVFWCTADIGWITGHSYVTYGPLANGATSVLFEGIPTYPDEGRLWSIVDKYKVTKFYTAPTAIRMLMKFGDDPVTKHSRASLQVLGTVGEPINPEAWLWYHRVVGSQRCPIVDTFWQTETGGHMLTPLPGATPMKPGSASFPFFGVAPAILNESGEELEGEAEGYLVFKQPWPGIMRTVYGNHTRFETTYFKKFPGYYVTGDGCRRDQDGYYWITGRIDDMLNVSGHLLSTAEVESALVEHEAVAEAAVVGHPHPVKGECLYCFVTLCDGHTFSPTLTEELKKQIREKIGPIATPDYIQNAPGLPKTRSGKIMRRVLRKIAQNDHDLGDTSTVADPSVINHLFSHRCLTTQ
The experiment in a line: In vitro acetyl coenzyme A synthetase activity (method of Goodridge). It counts as biochemical, mice. The note with it: for Acetyl-CoA Synthetase: Table 2, N = 6, x ± S.D., control 28.5 mg acetyl CoA formed/gm wet tissue/30 min.; for in vitro AcCoA synthetase: Table 3, N = 6, control 10.8 mg/g wet tissue.

For assay [4], the target named is T2, Citrate Lyase (Mus musculus, UniProt Q91V92).
T2 construct: 30.5 mg of citrate hydrolyzed/gm wet tissue/30 min; from tissue
T2 sequence (Q91V92 1-1091): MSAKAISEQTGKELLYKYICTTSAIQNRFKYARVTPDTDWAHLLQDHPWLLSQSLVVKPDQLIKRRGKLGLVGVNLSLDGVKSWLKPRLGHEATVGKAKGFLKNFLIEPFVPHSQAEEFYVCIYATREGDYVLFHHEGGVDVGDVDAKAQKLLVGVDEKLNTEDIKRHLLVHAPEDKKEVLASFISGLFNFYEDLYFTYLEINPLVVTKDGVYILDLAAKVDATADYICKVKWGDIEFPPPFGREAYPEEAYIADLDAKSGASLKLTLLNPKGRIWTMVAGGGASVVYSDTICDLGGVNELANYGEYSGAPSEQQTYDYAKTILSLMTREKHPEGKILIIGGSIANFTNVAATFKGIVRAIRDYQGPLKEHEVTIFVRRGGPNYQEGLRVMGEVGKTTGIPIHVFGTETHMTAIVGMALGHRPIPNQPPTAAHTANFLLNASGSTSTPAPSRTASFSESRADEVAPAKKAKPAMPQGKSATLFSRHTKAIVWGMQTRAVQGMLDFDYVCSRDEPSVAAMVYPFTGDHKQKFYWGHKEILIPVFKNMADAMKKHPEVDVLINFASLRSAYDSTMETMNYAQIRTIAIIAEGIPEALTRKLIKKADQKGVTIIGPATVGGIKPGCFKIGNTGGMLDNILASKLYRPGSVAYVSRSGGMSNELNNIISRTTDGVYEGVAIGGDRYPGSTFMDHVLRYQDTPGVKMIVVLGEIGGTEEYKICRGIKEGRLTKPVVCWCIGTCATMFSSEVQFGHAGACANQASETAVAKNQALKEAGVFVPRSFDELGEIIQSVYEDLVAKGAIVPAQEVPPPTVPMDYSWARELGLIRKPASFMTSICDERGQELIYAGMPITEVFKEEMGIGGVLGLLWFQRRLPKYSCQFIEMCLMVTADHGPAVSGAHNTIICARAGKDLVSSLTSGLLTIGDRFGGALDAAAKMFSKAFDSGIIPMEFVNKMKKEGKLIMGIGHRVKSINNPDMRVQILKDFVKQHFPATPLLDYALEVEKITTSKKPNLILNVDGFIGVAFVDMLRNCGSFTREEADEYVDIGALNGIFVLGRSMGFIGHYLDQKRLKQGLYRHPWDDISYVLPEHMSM
Nature of the assay: In vitro effect on citrate lyase. The class given is biochemical. The note with it: Table 2, N = 6, x ± S.D., control 30.5 mg of citrate hydrolyzed/gm wet tissue/30 min.

The target in assay [5] is T3, Acetyl-CoA Carboxylase (Mus musculus, UniProt Q5SWU9).
T3 construct: 32,010 dpm/gm wet tissue/30 min; from tissue
Nature of the assay: In vitro acetyl coenzyme A carboxylase activity (method of Greenspan and Lowenstein). It counts as biochemical. As to conditions: Table 2, N = 6, x ± S.D., control 32,010 dpm/gm wet tissue/30 min.

Assay [6] deals with T4, Fatty Acid Synthetase (Mus musculus, UniProt P19096).
T4 construct: gm wet tissue/30 min; from tissue
T4 sequence (P19096 whole entry): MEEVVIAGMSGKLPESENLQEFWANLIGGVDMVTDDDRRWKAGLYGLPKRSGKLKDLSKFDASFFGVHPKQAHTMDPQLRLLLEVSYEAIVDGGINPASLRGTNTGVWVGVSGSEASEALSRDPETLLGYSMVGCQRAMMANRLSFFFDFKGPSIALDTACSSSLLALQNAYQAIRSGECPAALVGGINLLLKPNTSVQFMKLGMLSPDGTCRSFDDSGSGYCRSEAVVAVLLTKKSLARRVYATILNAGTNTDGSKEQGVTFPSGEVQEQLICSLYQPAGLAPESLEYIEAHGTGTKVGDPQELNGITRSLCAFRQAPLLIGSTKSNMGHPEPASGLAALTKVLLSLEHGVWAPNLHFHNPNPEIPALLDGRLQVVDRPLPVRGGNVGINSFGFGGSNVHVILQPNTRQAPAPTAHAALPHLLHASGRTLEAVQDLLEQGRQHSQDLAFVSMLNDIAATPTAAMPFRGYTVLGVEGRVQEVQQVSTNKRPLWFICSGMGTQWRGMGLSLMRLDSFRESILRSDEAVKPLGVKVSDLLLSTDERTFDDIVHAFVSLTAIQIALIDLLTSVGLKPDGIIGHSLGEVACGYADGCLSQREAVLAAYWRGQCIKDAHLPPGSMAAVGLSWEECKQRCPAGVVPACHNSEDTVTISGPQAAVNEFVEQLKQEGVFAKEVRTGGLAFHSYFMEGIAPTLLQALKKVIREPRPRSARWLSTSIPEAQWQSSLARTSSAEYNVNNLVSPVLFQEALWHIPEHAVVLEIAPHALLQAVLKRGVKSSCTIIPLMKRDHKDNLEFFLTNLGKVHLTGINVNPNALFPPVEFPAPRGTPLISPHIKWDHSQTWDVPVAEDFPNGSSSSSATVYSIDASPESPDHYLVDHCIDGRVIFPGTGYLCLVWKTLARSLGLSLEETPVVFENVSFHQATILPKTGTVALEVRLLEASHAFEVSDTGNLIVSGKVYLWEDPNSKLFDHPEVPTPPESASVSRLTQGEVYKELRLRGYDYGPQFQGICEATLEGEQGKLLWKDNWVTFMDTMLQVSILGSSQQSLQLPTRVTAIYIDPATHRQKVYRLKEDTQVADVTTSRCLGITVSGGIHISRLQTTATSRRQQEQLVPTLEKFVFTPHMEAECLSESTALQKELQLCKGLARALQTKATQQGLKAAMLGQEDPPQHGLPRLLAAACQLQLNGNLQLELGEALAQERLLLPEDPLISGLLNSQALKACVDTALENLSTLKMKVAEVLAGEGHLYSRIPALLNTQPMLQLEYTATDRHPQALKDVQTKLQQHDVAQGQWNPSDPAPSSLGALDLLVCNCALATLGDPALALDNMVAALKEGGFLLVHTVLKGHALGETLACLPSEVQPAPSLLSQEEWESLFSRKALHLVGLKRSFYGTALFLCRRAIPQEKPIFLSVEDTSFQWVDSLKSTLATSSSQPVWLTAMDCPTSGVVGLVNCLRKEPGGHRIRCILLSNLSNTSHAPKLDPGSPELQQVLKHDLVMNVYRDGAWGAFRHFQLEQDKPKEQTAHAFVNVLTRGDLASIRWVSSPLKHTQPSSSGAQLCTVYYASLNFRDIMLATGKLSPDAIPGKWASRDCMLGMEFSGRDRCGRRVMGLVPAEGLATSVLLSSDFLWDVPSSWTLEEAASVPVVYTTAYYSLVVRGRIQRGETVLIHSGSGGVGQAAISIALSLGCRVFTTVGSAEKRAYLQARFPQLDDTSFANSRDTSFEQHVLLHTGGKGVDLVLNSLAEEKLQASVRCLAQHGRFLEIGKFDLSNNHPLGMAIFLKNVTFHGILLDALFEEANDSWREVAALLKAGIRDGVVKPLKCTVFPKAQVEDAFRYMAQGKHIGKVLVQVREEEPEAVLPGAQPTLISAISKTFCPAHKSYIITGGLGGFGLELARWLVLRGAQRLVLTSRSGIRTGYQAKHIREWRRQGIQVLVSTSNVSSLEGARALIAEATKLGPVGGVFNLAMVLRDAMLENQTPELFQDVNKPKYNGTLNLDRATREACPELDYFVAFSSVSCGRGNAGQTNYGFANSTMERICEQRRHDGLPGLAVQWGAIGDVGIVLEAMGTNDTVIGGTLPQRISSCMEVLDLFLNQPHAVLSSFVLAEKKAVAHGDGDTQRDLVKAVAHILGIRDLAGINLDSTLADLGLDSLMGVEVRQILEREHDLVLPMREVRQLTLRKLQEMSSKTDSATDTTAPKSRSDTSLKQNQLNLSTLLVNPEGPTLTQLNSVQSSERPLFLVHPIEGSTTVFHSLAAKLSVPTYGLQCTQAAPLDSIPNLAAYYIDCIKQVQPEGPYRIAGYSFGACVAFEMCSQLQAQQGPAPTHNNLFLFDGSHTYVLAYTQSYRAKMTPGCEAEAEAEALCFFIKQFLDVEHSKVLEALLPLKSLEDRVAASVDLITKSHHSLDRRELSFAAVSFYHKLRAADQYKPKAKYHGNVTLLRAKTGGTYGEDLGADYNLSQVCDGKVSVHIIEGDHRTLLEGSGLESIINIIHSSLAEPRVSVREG
The experiment in a line: In vitro effect on fatty acid synthetase. The class given is biochemical. The note with it: Table 2, N = 6, x ± S.D.

[7] abbreviates: 216 h, Table 1, 20 mg/kg/day I.P., male CF1 mice, N = 6, 9th day, control value 118 mg %, read-out: Serum Cholesterol, 9th day.
Where [8] appears, read: 384 h, Table 1, 20 mg/kg/day I.P., male CF1 mice, N = 6, 16th day, control value 122 mg %, read-out: Serum Cholesterol, 16th day.
The mark [9] stands for this setting: Table 1, 20 mg/kg/day I.P., male mice, N = 6, 14th day, control value 137 mg %, read-out: Serum Triglyceride, 14th day.
Setting [10] is: 216 h, Table 3, mice, N = 6, 9th day, control 115 mg %, read-out: serum cholesterol, 9th day.
The mark [11] stands for this setting: 384 h, Table 3, mice, N = 6, 16th day, control 118 mg %, read-out: serum cholesterol, 16th day.
Setting [12] is: Table 3, mice, N = 6, control 138 mg %, read-out: serum triglycerides.

Read-outs that look alike come from different tables or passages of the source.

Take `O=C1CCC(=O)N1` [Succinimide]: the values for the response vs control in vivo at 20 mg/kg/day in assay [1] (setting [7]), in assay [1] (setting [8]) and in assay [2] (setting [9]) were 78 ± 9%, 73 ± 12% and 68 ± 7%, respectively. In addition, the “Acetyl-CoA Synthetase” value in assay [3] came out at 74 ± 6 % Control. Further, the “Citrate Lyase” value in assay [4] was determined as 38 ± 3 % Control. Further, the “Acetyl-CoA Carboxylase” value in assay [5] was 87 ± 7 % Control. Moreover, the “Fatty Acid Synthetase” value in assay [6] is 98 ± 9 % Control.

Consider `O=C(O)CCCCN1C(=O)c2ccccc2C1=O` [5-N--phthalimidovaleric], for which the response vs control in vivo at 20 mg/kg/day in assay [1] (setting [10]) was 83 ± 9%; in assay [1] (setting [11]), 77 ± 4%; in assay [2] (setting [12]), 54 ± 5%. Further, the “in vitro AcCoA synthetase” value in assay [3] was determined as 76 ± 8 % Control.

Regarding `CC(=O)OCCN1C(=O)c2ccccc2C1=O` [N--phthalimidoethyl acetate], the response vs control in vivo at 20 mg/kg/day is 93 ± 13% in assay [1] (setting [10]), 95 ± 1% in assay [1] (setting [11]) and 82 ± 7% in assay [2] (setting [12]). Also, the “in vitro AcCoA synthetase” value in assay [3] is recorded as 81 ± 6 % Control.

As to `CCN1C(=O)c2ccccc2C1=O` [N--ethylphthalimide], the figures for the response vs control in vivo at 20 mg/kg/day in assay [1] (setting [10]), in assay [1] (setting [11]) and in assay [2] (setting [12]) were 83 ± 4%, 76 ± 2% and 87 ± 5%, respectively. Further, the “in vitro AcCoA synthetase” value in assay [3] amounted to 82 ± 5 % Control.

Turning to `O=C(O)CCCN1C(=O)c2ccccc2C1=O` [4-N--phthalimidobutyric acid], the response vs control in vivo at 20 mg/kg/day in assay [1] (setting [10]) turned out to be 80 ± 7%; in assay [1] (setting [11]), 68 ± 6%; in assay [2] (setting [12]) it was 59 ± 14%. Further, in assay [3], the “in vitro AcCoA synthetase” value came to 64 ± 12 % Control.

For `O=C1NS(=O)(=O)c2ccccc21` [Saccharin], the values for the response vs control in vivo at 20 mg/kg/day in assay [1] (setting [7]), in assay [1] (setting [8]) and in assay [2] (setting [9]) were 68 ± 11%, 67 ± 10% and 51 ± 16%, respectively. Also, the “Acetyl-CoA Synthetase” value in assay [3] is 61 ± 7 % Control. Besides, in assay [4], the “Citrate Lyase” value is given as 65 ± 6 % Control. Also, the “Acetyl-CoA Carboxylase” value in assay [5] was 9 ± 2 % Control. Moreover, the “Fatty Acid Synthetase” value in assay [6] came out at 93 ± 5 % Control.

Turning to `CCCCCCN1C(=O)c2ccccc2C1=O` [N--n-hexylphthalimide], the response vs control in vivo at 20 mg/kg/day was 96 ± 5% in assay [1] (setting [10]), 66 ± 4% in assay [1] (setting [11]) and 84 ± 8% in assay [2] (setting [12]). The “in vitro AcCoA synthetase” value in assay [3] turned out to be 71 ± 12 % Control.

As for `CC(=O)CCCN1C(=O)c2ccccc2C1=O` [1-N--phthalimidopentan-4-one], the figures for the response vs control in vivo at 20 mg/kg/day in assay [1] (setting [10]), in assay [1] (setting [11]) and in assay [2] (setting [12]) were 71 ± 6%, 63 ± 5% and 59 ± 13%, respectively. In addition, the “in vitro AcCoA synthetase” value in assay [3] is on record as 62 ± 3 % Control.

In the case of `CC(=O)OCN1C(=O)c2ccccc2C1=O` [N--phthalimidomethyl acetate], the values for the response vs control in vivo at 20 mg/kg/day in assay [1] (setting [10]), in assay [1] (setting [11]) and in assay [2] (setting [12]) were 61 ± 9%, 62 ± 4% and 57 ± 25%, respectively. In assay [3], the “in vitro AcCoA synthetase” value came to 62 ± 10 % Control.

In the case of `O=C1NC(=O)c2ccccc21.[K]` [potassium phthalimide], the response vs control in vivo at 20 mg/kg/day in assay [1] (setting [10]) was found to be 63 ± 6%; in assay [1] (setting [11]), 78 ± 3%; in assay [2] (setting [12]) it was 88 ± 4%. Also, in assay [3], the “in vitro AcCoA synthetase” value is 78 ± 6 % Control.

Regarding `CCCN1C(=O)c2ccccc2C1=O` [N--n-propylphthalimide], the values for the response vs control in vivo at 20 mg/kg/day in assay [1] (setting [10]), in assay [1] (setting [11]) and in assay [2] (setting [12]) were 96 ± 4%, 74 ± 5% and 81 ± 9%, respectively. The “in vitro AcCoA synthetase” value in assay [3] is given as 67 ± 3 % Control.

As to `CCCCCCCN1C(=O)c2ccccc2C1=O` [N--n-heptylphthalimide], the response vs control in vivo at 20 mg/kg/day in assay [1] (setting [10]) was 99 ± 7%; in assay [1] (setting [11]), 72 ± 4%; in assay [2] (setting [12]) it was 84 ± 6%. In assay [3], the “in vitro AcCoA synthetase” value is listed as 71 ± 5 % Control.

Turning to `CCCCCN1C(=O)c2ccccc2C1=O` [N--n-pentylphthalimide], the response vs control in vivo at 20 mg/kg/day in assay [1] (setting [10]) worked out at 76 ± 5%; in assay [1] (setting [11]), 58 ± 3%; in assay [2] (setting [12]), 75 ± 16%. Besides, in assay [3], the “in vitro AcCoA synthetase” value turned out to be 68 ± 6 % Control.

Turning to `CN1C(=O)c2ccccc2C1=O` [N--methylphthalimide], the response vs control in vivo at 20 mg/kg/day amounted to 74 ± 4% in assay [1] (setting [10]), 74 ± 8% in assay [1] (setting [11]) and 68 ± 8% in assay [2] (setting [12]). Also, the “in vitro AcCoA synthetase” value in assay [3] turned out to be 66 ± 12 % Control.

`CC(=O)CCCCN1C(=O)c2ccccc2C1=O` [1-N--phthalimidohexan-5-one]: the response vs control in vivo at 20 mg/kg/day in assay [1] (setting [10]) stood at 65 ± 9%; in assay [1] (setting [11]), 65 ± 7%; in assay [2] (setting [12]), 77 ± 5%. In addition, the “in vitro AcCoA synthetase” value in assay [3] stood at 68 ± 6 % Control.

In the case of `CCCCCCCCN1C(=O)c2ccccc2C1=O` [N--n-octylphthalimide], the response vs control in vivo at 20 mg/kg/day came to 101 ± 7% in assay [1] (setting [10]), 82 ± 3% in assay [1] (setting [11]) and 77 ± 4% in assay [2] (setting [12]). The “in vitro AcCoA synthetase” value in assay [3] was found to be 76 ± 7 % Control.

For `O=C(O)CCCCCN1C(=O)c2ccccc2C1=O` [6-N--phthalimidocaproic acid], the response vs control in vivo at 20 mg/kg/day is 81 ± 6% in assay [1] (setting [10]), 67 ± 3% in assay [1] (setting [11]) and 51 ± 12% in assay [2] (setting [12]). Besides, in assay [3], the “in vitro AcCoA synthetase” value is 59 ± 9 % Control.

For the compound `CC(=O)OCCCN1C(=O)c2ccccc2C1=O` [N--phthalimidopropan-1-ol acetate], the response vs control in vivo at 20 mg/kg/day in assay [1] (setting [10]) is 102 ± 4%; in assay [1] (setting [11]), 66 ± 2%; in assay [2] (setting [12]), 89 ± 9%. For the same compound, in assay [3], the “in vitro AcCoA synthetase” value is recorded as 84 ± 2 % Control.

Consider `CC(=O)CCCCCN1C(=O)c2ccccc2C1=O` [1-N--phthalimidoheptan-6-one], for which the response vs control in vivo at 20 mg/kg/day came out at 71 ± 6% in assay [1] (setting [10]), 75 ± 12% in assay [1] (setting [11]) and 88 ± 5% in assay [2] (setting [12]). Besides, the “in vitro AcCoA synthetase” value in assay [3] came to 85 ± 3 % Control.

Regarding `O=C(O)CN1C(=O)c2ccccc2C1=O` [2-N--phthalimidoacetic acid], the results for the response vs control in vivo at 20 mg/kg/day in assay [1] (setting [10]), in assay [1] (setting [11]) and in assay [2] (setting [12]) were 76 ± 7%, 68 ± 7% and 72 ± 9%, respectively. Also, in assay [3], the “in vitro AcCoA synthetase” value is given as 72 ± 12 % Control.

Turning to `CC(=O)OCCCCN1C(=O)c2ccccc2C1=O` [N--phthalimidobutan-1-ol acetate], the response vs control in vivo at 20 mg/kg/day in assay [1] (setting [10]) is 93 ± 9%; in assay [1] (setting [11]), 66 ± 5%; in assay [2] (setting [12]) it was 88 ± 7%. In assay [3], the “in vitro AcCoA synthetase” value is reported as 83 ± 2 % Control.

Source of the values: patent US4395417A, “Antihyperlipidemic compositions” (Research Corporation, priority 1980, dated 1983).
